Test results from PMC6289299 (Inorganic chemistry, 2018).

Key:
[1] = physchem; format: physicochemical
[2] = physchem; format: physicochemical; remark: listed apart in the source
[3] = molecular target: human carbonic anhydrase II (hCAII) (Homo sapiens, UniProt P00918); assay: hCAII assay; format: biochemical

With `O=C(O)c1ccccn1` [Compound 1, picolinic acid] the pKa [1] was < 1.5, the logP [2] was < -2 and the logD ([2]; pH 7.4) was < -2. For the same compound, the IC50 [3] was > 1 mM.
